Results reported in US20170305943A1, “COMPOUNDS FOR THE TREATMENT OF BACTERIAL INFECTIONS” (priority 2014, published 2017).
≈ marks a conversion by molar mass, not a printed value.

test system: Clostridium difficile (Isolate ID ATCC 9689); experiment: Bacterial Assay: Determination of Antibacterial Activity (MIC, broth microdilution or agar dilution); type: cell-based; conditions: Clostridioides difficile, ATCC9689, 48 h, read-out: C. difficile MIC Activity Range
Method in brief: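 MICs were set by CLSI broth microdilution or agar dilution for anaerobes, read visually after 48 hours at 37° C. under anaerobic gas packs. Medium was reinforced clostridial medium with 0.1% defibrinated horse blood; values are binned as A ≦1.01, B >1.0-4.0, C >4.0-16 μg/mL.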

`CC(=O)OCC(Oc1ccc(F)c(C(N)=O)c1F)c1nc(-c2ccc(C(F)(F)F)cc2)c(Br)o1` (stereo not drawn) [Compound 31, 2-{5-bromo-4-[4-(trifluoromethyl)phenyl]-1,3-oxazol-2-yl}-2-(3-carbamoyl-2,4-difluorophenoxy)ethyl acetate] and `CC(=O)OCCCC(Oc1ccc(F)c(C(N)=O)c1F)c1nc(-c2ccc(C(F)(F)F)cc2)c(Br)o1` (stereo not drawn) [Compound 45, 4-{5-bromo-4-[4-(trifluoromethyl)phenyl]-1,3-oxazol-2-yl}-4-(3-carbamoyl-2,4-difluorophenoxy)butyl acetate] cannot be ordered by MIC: under 1.01 µg/mL for the first, 1 to 4 µg/mL for the second.

`CCCCCCCCCOc1ccc(Cl)c(C(N)=O)c1F` [Compound 2, 6-chloro-2-fluoro-3-(nonyloxy)benzamide] and `CCCCCCCCCNc1ccc(F)c(C(N)=O)c1F` [Compound 123, 2,6-difluoro-3-(nonylamino)benzamide] cannot be ordered by MIC: under 1.01 µg/mL for the first, 1 to 4 µg/mL (≈ 3.35 to 13.4 µM) for the second.

`NC(=O)c1c(F)ccc(OCCCc2nc(-c3ccc(C(F)(F)F)cc3)cs2)c1F` [Compound 113, 2,6-difluoro-3-(3-{4-[4-(trifluoromethyl)phenyl]-1,3-thiazol-2-yl}propoxy)benzamide] and `NC(=O)c1c(F)ccc(OCc2nc(-c3ccc(F)cc3)cs2)c1F` [Compound 15, 2,6-difluoro-3-{[4-(4-fluorophenyl)-1,3-thiazol-2-yl]methoxy}benzamide] fall in the same range of MIC: 1 to 4 µg/mL (≈ 2.26 to 9.04 µM) for the first, 1 to 4 µg/mL (≈ 2.74 to 11 µM) for the second.

Compared with `C=CCc1oc(C(C)Oc2ccc(F)c(C(N)=O)c2F)nc1-c1ccc(OC(F)(F)F)cc1` (stereo not drawn) [Compound 26, 2,6-difluoro-3-(1-{5-(prop-2-en-1-yl)-4-[4-(trifluoromethoxy)phenyl]-1,3-oxazol-2-yl}ethoxy)benzamide], `NC(=O)c1c(F)ccc(O[C@H](CO)c2nc(-c3ccc(C(F)(F)F)cc3)c(Br)o2)c1F` (racemic) [Compound 32, 3-(1-{5-bromo-4-[4-(trifluoromethyl)phenyl]-1,3-oxazol-2-yl}-2-hydroxyethoxy)-2,6-difluorobenzamide] is lower in MIC: 4 to 16 µg/mL (≈ 8.54 to 34.2 µM) for the first, under 1.01 µg/mL for the second.

`NC(=O)c1c(F)ccc(OCc2nc(-c3ccc(Cl)cc3)no2)c1F` [Compound 13, 3-{[3-(4-chlorophenyl)-1,2,4-oxadiazol-5-yl]methoxy}-2,6-difluorobenzamide] and `COc1ccc(-c2nc(COc3ccc(F)c(C(N)=O)c3F)oc2Br)cc1` [Compound 22, 3-{[5-bromo-4-(4-methoxyphenyl)-1,3-oxazo1-2-yl]methoxy}-2,6-difluorobenzamide] cannot be ordered by MIC: 1 to 4 µg/mL (≈ 2.73 to 10.9 µM) for the first, under 1.01 µg/mL for the second.

`CCOC(=O)CN(CCCCOc1ccc(OC(F)(F)F)cc1)c1ccc(F)c(C(N)=O)c1F` [Compound 186, ethyl N-(3-carbamoyl-2,4-difluorophenyl)-N-{4-[4-(trifluoromethoxy)phenoxy]butyl}glycinate] and `COCCN(CCCCOc1ccc(OC(F)(F)F)cc1)c1ccc(F)c(C(N)=O)c1F` [Compound 184, 2,6-difluoro-3-[(2-methoxyethyl){4-[4-(trifluoromethoxy)phenoxy]butyl}amino]benzamide] fall in the same range of MIC: 1 to 4 µg/mL (≈ 2.04 to 8.16 µM) for the first, 1 to 4 µg/mL (≈ 2.16 to 8.65 µM) for the second.

`NC(=O)c1c(F)ccc(OCCCCOc2ccc(OC(F)(F)F)c(Br)c2)c1F` [Compound 163, 3-{4-[3-bromo-4-(trifluoromethoxy)phenoxy]butoxy}-2,6-difluorobenzamide] and `COc1ccc(OCCCCOc2ccc(F)c(C(N)=O)c2F)cc1` [Compound 154, 2,6-difluoro-3-[4-(4-methoxyphenoxy)butoxy]benzamide] cannot be ordered by MIC: under 1.01 µg/mL for the first, 1 to 4 µg/mL (≈ 2.85 to 11.4 µM) for the second.

`CC(C)(C)OC(=O)NCCNC(=O)OCC(Oc1ccc(F)c(C(N)=O)c1F)c1nc(-c2ccc(C(F)(F)F)cc2)c(Br)o1` (stereo not drawn) [Compound 55, 2-{5-bromo-4-[4-(trifluoromethyl)phenyl]-1,3-oxazol-2-yl}-2-(3-carbamoyl-2,4-difluorophenoxy)ethyl tert-butyl ethane-1,2-diylbiscarbamate] and `CN(CCNC(=O)OCC(Oc1ccc(F)c(C(N)=O)c1F)c1nc(-c2ccc(C(F)(F)F)cc2)c(Br)o1)C(=O)OC(C)(C)C` (stereo not drawn) [Compound 56, tert-butyl [2-({[2-{5-bromo-4-[4-(trifluoromethyl)phenyl]-1,3-oxazol-2-yl}-2-(3-carbamoyl-2,4-difluorophenoxy)ethoxy]carbonyl}amino)ethyl]methyl carbamate (non-preferred name)] fall in the same range of MIC: 1 to 4 µg/mL (≈ 1.44 to 5.77 µM) for the first, 1 to 4 µg/mL (≈ 1.41 to 5.65 µM) for the second.

`Cc1ccc(-c2nc(CCOc3ccc(F)c(C(N)=O)c3F)c(C)o2)cc1` [Compound 18, 2,6-difluoro-3-{2-[5-methyl-2-(4-methylphenyl)-1,3-oxazol-4-yl]ethoxy}benzamide] and `NC(=O)c1c(F)ccc(OCc2nc(-c3ccc(C(F)(F)F)cc3)c(Br)s2)c1F` [Compound 211, 3-({5-bromo-4-[4-(trifluoromethyl)phenyl]-1,3-thiazol-2-yl}methoxy)-2,6-difluorobenzamide] fall in the same range of MIC: 1 to 4 µg/mL (≈ 2.69 to 10.7 µM) for the first, 1 to 4 µg/mL (≈ 2.03 to 8.11 µM) for the second.

`COc1ccc(-c2nc(COc3ccc(F)c(C(N)=O)c3F)oc2-c2cccc(Cl)c2O)cc1` [Compound 204, 3-{[5-(3-chloro-2-hydroxyphenyl)-4-(4-methoxyphenyl)-1,3-oxazol-2-yl]methoxy}-2,6-difluorobenzamide] and `NC(=O)c1c(F)ccc(OC(CO)c2nc(-c3ccc(Cl)cc3)cs2)c1F` (stereo not drawn) [Compound 25, 3-{1-[4-(4-chlorophenyl)-1,3-thiazol-2-yl]-2-hydroxyethoxy}-2,6-difluorobenzamide] fall in the same range of MIC: 4 to 16 µg/mL (≈ 8.22 to 32.9 µM) for the first, 4 to 16 µg/mL (≈ 9.74 to 38.9 µM) for the second.

`CC/C=C\CCCCCOc1ccc(F)c(C(N)=O)c1F` [Compound 6, 2,6-difluoro-3-[(6Z)-non-6-en-1-yloxy]benzamide] and `NC(=O)c1c(F)ccc(OCCCCOc2ccc(Cl)cc2Cl)c1F` [Compound 137, 3-[4-(2,4-dichlorophenoxy)butoxy]-2,6-difluorobenzamide] cannot be ordered by MIC: under 1.01 µg/mL for the first, under 1.01 µg/mL for the second.

First: Cn1ccnc1CNC(=O)OCC(Oc1ccc(F)c(C(N)=O)c1F)c1nc(-c2ccc(C(F)(F)F)cc2)c(Br)o1 (stereo not drawn) [Compound 79, 2-{5-bromo-4-[4-(trifluoromethyl)phenyl]-1,3-oxazol-2-yl}-2-(3-carbamoyl-2,4-difluorophenoxy)ethyl [(1-methyl-1H-imidazol-2-yl)methyl]carbamate]
Second: Cn1nccc1CNC(=O)OCC(Oc1ccc(F)c(C(N)=O)c1F)c1nc(-c2ccc(C(F)(F)F)cc2)c(Br)o1 (stereo not drawn) [Compound 73, 2-{5-bromo-4-[4-(trifluoromethyl)phenyl]-1,3-oxazol-2-yl}-2-(3-carbamoyl-2,4-difluorophenoxy)ethyl [(1-methyl-1H-pyrazo1-5-yl)methyl]carbamate]
The MIC of the first is higher: 4 to 16 µg/mL (≈ 6.21 to 24.8 µM) for the first, under 1.01 µg/mL for the second.

`Cc1noc(CNC(=O)OCC(Oc2ccc(F)c(C(N)=O)c2F)c2nc(-c3ccc(C(F)(F)F)cc3)c(Br)o2)n1` (stereo not drawn) [Compound 68, 2-{5-bromo-4-[4-(trifluoromethyl)phenyl]-1,3-oxazol-2-yl}-2-(3-carbamoyl-2,4-difluorophenoxy)ethyl [(3-methyl-1,2,4-oxadiazol-5-yl)methyl]carbamate] and `Cc1cnccc1CNC(=O)OCC(Oc1ccc(F)c(C(N)=O)c1F)c1nc(-c2ccc(C(F)(F)F)cc2)c(Br)o1` (stereo not drawn) [Compound 91, 2-{5-bromo-4-[4-(trifluoromethyl)phenyl]1,3-oxazol-2-yl}-2-(3-carbamoyl-2,4-difluorophenoxy)ethyl [(3-methylpyridin-4-yl)methyl]carbamate] cannot be ordered by MIC: 1 to 4 µg/mL (≈ 1.55 to 6.19 µM) for the first, under 1.01 µg/mL for the second.

`CNC(=O)CCC(Oc1ccc(F)c(C(N)=O)c1F)c1nc(-c2ccc(C(F)(F)F)cc2)c(Br)o1` (stereo not drawn) [Compound 48, 3-[1-{5-bromo-4-[4-(trifluoromethyl)phenyl]-1,3-oxazol-2-yl}-4-(methylamino)-4-oxobutoxy]-2,6-difluorobenzamide] and `CSc1oc(C(CO)Oc2ccc(F)c(C(N)=O)c2F)nc1-c1ccc(C(F)(F)F)cc1` (stereo not drawn) [Compound 69, 2,6-difluoro-3-(2-hydroxy-1-{5-(methylthio)-4-[4-(trifluoromethyl)phenyl]-1,3-oxazol-2-yl}ethoxy)benzamide] cannot be ordered by MIC: 1 to 4 µg/mL (≈ 1.78 to 7.11 µM) for the first, under 1.01 µg/mL for the second.

First: N#Cc1ccc(OCCCCOc2ccc(F)c(C(N)=O)c2F)cc1 [Compound 177, 3-[4-(4-cyanophenoxy)butoxy]-2,6-difluorobenzamide]
Second: N/C(=N\O)c1c(F)ccc(OCCCCOc2ccc(C(F)(F)F)cn2)c1F [Compound 178, 2,6-difluoro-N′-hydroxy-3-(4-{[5-(trifluoromethyl)pyridin-2-yl]oxy}butoxy)benzenecarboximidamide]
The MIC of the first is lower: 1 to 4 µg/mL (≈ 2.89 to 11.5 µM) for the first, 4 to 16 µg/mL (≈ 9.87 to 39.5 µM) for the second.

`N/C(=N\O)c1c(F)ccc(OCc2nc(-c3ccc(OC(F)(F)F)cc3)ns2)c1F` [Compound 119, 2,6-difluoro-N′-hydroxy-3-({3-[4-(trifluoromethoxy)phenyl]-1,2,4-thiadiazol-5-yl}methoxy)benzenecarboximidamide] and `NC(=O)c1c(F)ccc(OCCOCCOc2ccc(C(F)(F)F)cn2)c1F` [Compound 156, 2,6-difluoro-3-[2-(2-{[5-(trifluoromethyl)pyridin-2-yl]oxy}ethoxy)ethoxy]benzamide] fall in the same range of MIC: 1 to 4 µg/mL (≈ 2.24 to 8.96 µM) for the first, 1 to 4 µg/mL (≈ 2.46 to 9.84 µM) for the second.

`Cc1ccc(CNC(=O)OCC(Oc2ccc(F)c(C(N)=O)c2F)c2nc(-c3ccc(C(F)(F)F)cc3)c(Br)o2)n1C` (stereo not drawn) [Compound 86, 2-{5-bromo-4-[4-(trifluoromethyl)phenyl]-1,3-oxazol-2-yl}-2-(3-carbamoyl-2,4-difluorophenoxy)ethyl [(1,5-dimethyl-1H-pyrrol-2-yl)methyl]carbamate] and `NC(=O)c1c(F)ccc(OC(COC(=O)NCc2ccncc2)c2nc(-c3ccc(C(F)(F)F)cc3)c(Br)o2)c1F` (stereo not drawn) [Compound 63, 2-{5-bromo-4-[4-(trifluoromethyl)phenyl]-1,3-oxazol-2-yl}-2-(3-carbamoyl-2,4-difluorophenoxy)ethyl (pyridin-4-ylmethyl)carbamate] cannot be ordered by MIC: 1 to 4 µg/mL (≈ 1.52 to 6.08 µM) for the first, under 1.01 µg/mL for the second.

`NC(=O)c1c(F)ccc(OC(CO)c2nc(-c3ccc(Br)s3)c(Br)o2)c1F` (stereo not drawn) [Compound 100, 3-{1-[5-bromo-4-(5-bromothiophen-2-yl)-1,3-oxazol-2-yl]-2-hydroxyethoxy}-2,6-difluorobenzamide] and `NC(=O)c1c(F)ccc(OC(COC(=O)Cn2cccc2)c2nc(-c3ccc(C(F)(F)F)cc3)c(Br)o2)c1F` (stereo not drawn) [Compound 40, 2-{5-bromo-4-[4-(trifluoromethyl)phenyl]-1,3-oxazol-2-yl}-2-(3-carbamoyl-2,4-difluorophenoxy)ethyl 1H-pyrrol-l-ylacetate] cannot be ordered by MIC: 1 to 4 µg/mL (≈ 1.91 to 7.63 µM) for the first, under 1.01 µg/mL for the second.
